Data from PubChem BioAssay (NCI).
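Five compound concentrations were applied to cells in 96-well plates for 48 hours; endpoints were derived by simple linear interpolation of the resulting dose-response curve. GI50 = concentration required for 50% inhibition of growth. TGI is the concentration that stops growth completely.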

Key:
Test in all cases: inhibition of tumour cell growth, NCI panel, 48 h
OVCAR-3 ovarian = test system: OVCAR-3 ovarian
UACC-257 melanoma = test system: UACC-257 melanoma
A549 NSCLC = test system: A549 NSCLC
UO-31 renal = test system: UO-31 renal
T-47D breast = test system: T-47D breast
SF-539 CNS = test system: SF-539 CNS
K-562 leukemia = test system: K-562 leukemia
HL-60(TB) leukemia = test system: HL-60(TB) leukemia
SN12C renal = test system: SN12C renal
NCI-H460 lung = test system: NCI-H460 lung
ACHN renal = test system: ACHN renal
SK-OV-3 ovarian = test system: SK-OV-3 ovarian
RPMI-8226 leukemia = test system: RPMI-8226 leukemia
COLO 205 colon = test system: COLO 205 colon
SK-MEL-2 melanoma = test system: SK-MEL-2 melanoma
HT29 colon = test system: HT29 colon
KM12 colon = test system: KM12 colon
SK-MEL-28 melanoma = test system: SK-MEL-28 melanoma
OVCAR-5 ovarian = test system: OVCAR-5 ovarian
SW-620 colon = test system: SW-620 colon
HOP-62 NSCLC = test system: HOP-62 NSCLC
A498 renal = test system: A498 renal
OVCAR-8 ovarian = test system: OVCAR-8 ovarian
IGROV1 ovarian = test system: IGROV1 ovarian
SK-MEL-5 melanoma = test system: SK-MEL-5 melanoma
MDA-MB-435 = test system: MDA-MB-435
SF-268 CNS = test system: SF-268 CNS
U251 CNS = test system: U251 CNS
NCI-H23 lung = test system: NCI-H23 lung
PC-3 prostate = test system: PC-3 prostate
TK-10 renal = test system: TK-10 renal
NCI-H226 lung = test system: NCI-H226 lung
DU-145 prostate = test system: DU-145 prostate
SR leukemia = test system: SR leukemia
HCT-15 colon = test system: HCT-15 colon
HCT-116 colon = test system: HCT-116 colon
M14 melanoma = test system: M14 melanoma
SNB-19 CNS = test system: SNB-19 CNS
RXF 393 renal = test system: RXF 393 renal
SNB-75 CNS = test system: SNB-75 CNS
NCI/ADR-RES ovarian = test system: NCI/ADR-RES ovarian
MOLT-4 leukemia = test system: MOLT-4 leukemia
CCRF-CEM leukemia = test system: CCRF-CEM leukemia
HS 578T breast = test system: HS 578T breast
MALME-3M melanoma = test system: MALME-3M melanoma
HCC-2998 colon = test system: HCC-2998 colon
MCF7 breast = test system: MCF7 breast
786-0 renal = test system: 786-0 renal
NCI-H522 lung = test system: NCI-H522 lung
OVCAR-4 ovarian = test system: OVCAR-4 ovarian
MDA-MB-231 breast = test system: MDA-MB-231 breast
CAKI-1 renal = test system: CAKI-1 renal
LOX IMVI melanoma = test system: LOX IMVI melanoma
BT-549 breast = test system: BT-549 breast
HOP-92 NSCLC = test system: HOP-92 NSCLC
EKVX NSCLC = test system: EKVX NSCLC
UACC-62 melanoma = test system: UACC-62 melanoma
SF-295 CNS = test system: SF-295 CNS

## COc1cnc2c(c1)C(=O)c1c-2n(CCCn2ccnc2)c(=O)c2cc(OC)c(OC)cc12
OVCAR-3 ovarian
  GI50: 594 nM
  TGI: 2010 nM
UACC-257 melanoma
  GI50: 627 nM
  TGI: 2780 nM
A549 NSCLC
  GI50: 465 nM
  TGI: 11700 nM
UO-31 renal
  GI50: 65.9 nM
  TGI: 1370 nM
T-47D breast
  GI50: 41.1 nM
  TGI: 1900 nM
SF-539 CNS
  GI50: 52.7 nM
  TGI: 889 nM
K-562 leukemia
  GI50: 85.2 nM
  TGI: 5860 nM
HL-60(TB) leukemia
  GI50: 45 nM
  TGI: 3670 nM
SN12C renal
  GI50: 56.3 nM
  TGI: 4020 nM
NCI-H460 lung
  GI50: 36.5 nM
  TGI: 1320 nM
ACHN renal
  GI50: 37.6 nM
  TGI: 1090 nM
SK-OV-3 ovarian
  GI50: 119 nM
  TGI: 2270 nM
RPMI-8226 leukemia
  GI50: 167 nM
  TGI: 3580 nM
COLO 205 colon
  GI50: 654 nM
  TGI: 2380 nM
SK-MEL-2 melanoma
  GI50: 17300 nM
  TGI: 31500 nM
HT29 colon
  GI50: 242 nM
  TGI: 1750 nM
KM12 colon
  GI50: 1670 nM
  TGI: 7690 nM
SK-MEL-28 melanoma
  GI50: 1310 nM
  TGI: 3610 nM
OVCAR-5 ovarian
  GI50: 1030 nM
  TGI: 3100 nM
SW-620 colon
  GI50: 127 nM
  TGI: 2130 nM
HOP-62 NSCLC
  GI50: 41.9 nM
  TGI: 1300 nM
A498 renal
  GI50: 9440 nM
  TGI: 23300 nM
OVCAR-8 ovarian
  GI50: 419 nM
  TGI: 2950 nM
IGROV1 ovarian
  GI50: 1240 nM
  TGI: 6210 nM
SK-MEL-5 melanoma
  GI50: 258 nM
  TGI: 1480 nM
MDA-MB-435
  GI50: 710 nM
  TGI: 4790 nM
SF-268 CNS
  GI50: 72.9 nM
  TGI: 14100 nM
U251 CNS
  GI50: 48.1 nM
  TGI: 3280 nM
NCI-H23 lung
  GI50: 72.1 nM
  TGI: 1620 nM
PC-3 prostate
  GI50: 631 nM
  TGI: 8450 nM
TK-10 renal
  GI50: 2940 nM
  TGI: 8090 nM
NCI-H226 lung
  GI50: 190 nM
  TGI: 5000 nM
DU-145 prostate
  GI50: 60.8 nM
  TGI: 1900 nM
SR leukemia
  GI50: 20.4 nM
  TGI: 6640 nM
HCT-15 colon
  GI50: 1210 nM
  TGI: 3140 nM
HCT-116 colon
  GI50: 113 nM
  TGI: 1710 nM
M14 melanoma
  GI50: 60 nM
  TGI: 1410 nM
SNB-19 CNS
  GI50: 68 nM
  TGI: 13300 nM
RXF 393 renal
  GI50: 354 nM
  TGI: 2190 nM
SNB-75 CNS
  GI50: 67.3 nM
  TGI: 1210 nM
NCI/ADR-RES ovarian
  GI50: 361 nM
  TGI: 4410 nM
MOLT-4 leukemia
  GI50: 36.7 nM
  TGI: 2530 nM
CCRF-CEM leukemia
  GI50: 35.3 nM
  TGI: 4470 nM
HS 578T breast
  GI50: 4770 nM
  TGI: 17500 nM
MALME-3M melanoma
  GI50: 1390 nM
  TGI: 3040 nM
HCC-2998 colon
  GI50: 899 nM
  TGI: 3060 nM
MCF7 breast
  GI50: 29.8 nM
  TGI: 1400 nM
786-0 renal
  GI50: 55.1 nM
  TGI: 1280 nM
NCI-H522 lung
  GI50: 80.3 nM
  TGI: 1610 nM
OVCAR-4 ovarian
  GI50: 1540 nM
  TGI: 3530 nM
MDA-MB-231 breast
  GI50: 3550 nM
  TGI: 11900 nM
CAKI-1 renal
  GI50: 39.1 nM
  TGI: 3410 nM
LOX IMVI melanoma
  GI50: 42.2 nM
  TGI: 1120 nM
BT-549 breast
  GI50: 416 nM
  TGI: 6620 nM
HOP-92 NSCLC
  GI50: 935 nM
  TGI: 10800 nM
EKVX NSCLC
  GI50: 1680 nM
  TGI: 7240 nM
UACC-62 melanoma
  GI50: 40.1 nM
  TGI: 1470 nM
SF-295 CNS
  GI50: 38.1 nM
  TGI: 1410 nM
